Assay results published in ChEMBL document CHEMBL1201862, “PubChem BioAssay data set” (2004).
Active and inactive are the calls of the source.

Tests used:
cells [1] = assay type: functional, cell-based
BJ [2] = assay: cytotoxicity toward BJ-TERT fibroblasts, dose response, cell-based, RAS-independent, luminescence (AID 1933); assay type: functional; conditions: Homo sapiens
BJ [3] = assay: cytotoxicity toward Ras-transformed BJeLR fibroblasts, dose response, cell-based, alamar blue fluorescence, cherrypicked samples (AID 2631); assay type: functional; conditions: Homo sapiens;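 also: confirmatory dose-response assay in RAS-dependent BJ fibroblasts engineered with TERT, LT and ST, with cytotoxicity read by fluorescence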
cells [4] = assay type: functional, cell-based; remark: listed apart in the source
HT-1080 = assay: cytotoxicity in HT1080 fibrosarcoma cells, cell-based, fluorescence readout (AID 620); assay type: functional; conditions: Homo sapiens
Nonstructural protein 1 = Nonstructural protein 1 (Influenza A virus, UniProt Q194T2); assay type: functional, Influenza A virus (A/California/07/2009(H1N1))
Nonstructural protein 1, sequence (Q194T2 whole entry): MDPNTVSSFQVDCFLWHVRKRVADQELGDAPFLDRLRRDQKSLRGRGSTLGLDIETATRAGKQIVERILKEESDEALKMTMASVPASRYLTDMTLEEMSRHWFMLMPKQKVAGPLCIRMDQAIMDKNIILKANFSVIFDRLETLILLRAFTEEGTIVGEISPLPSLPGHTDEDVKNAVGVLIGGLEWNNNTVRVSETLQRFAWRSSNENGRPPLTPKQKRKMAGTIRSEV

[5] = biological target: Luciferin 4-monooxygenase (Photinus pyralis, UniProt P08659); assay: Counter Screen for Luciferase-based Assay Positives. [Related pubchem assays: 620, 618, 411 ]
Luciferin 4-monooxygenase, sequence (P08659 whole entry): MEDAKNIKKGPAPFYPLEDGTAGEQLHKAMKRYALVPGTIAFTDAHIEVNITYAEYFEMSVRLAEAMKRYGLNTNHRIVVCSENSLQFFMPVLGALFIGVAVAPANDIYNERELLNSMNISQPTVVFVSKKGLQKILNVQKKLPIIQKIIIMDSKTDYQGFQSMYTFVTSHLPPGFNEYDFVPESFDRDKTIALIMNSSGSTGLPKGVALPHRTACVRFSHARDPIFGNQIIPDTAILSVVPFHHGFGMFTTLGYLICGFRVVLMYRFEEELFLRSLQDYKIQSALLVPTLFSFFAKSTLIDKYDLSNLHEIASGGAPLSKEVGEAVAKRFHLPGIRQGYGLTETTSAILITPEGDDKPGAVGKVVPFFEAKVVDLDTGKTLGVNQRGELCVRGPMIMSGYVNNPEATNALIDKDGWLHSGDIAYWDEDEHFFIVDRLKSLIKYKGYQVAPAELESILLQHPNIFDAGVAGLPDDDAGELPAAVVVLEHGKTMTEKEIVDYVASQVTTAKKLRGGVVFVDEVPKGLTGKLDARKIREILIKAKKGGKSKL

[6] = cytotoxicity toward DRD oncogenic fibroblasts, dose response, cell-based, non-viral oncogenic, luminescence (AID 1934); assay type: functional; conditions: Homo sapiens
[7] = Vero E6 cell cytotoxicity, dose response, cytotoxicity control for non-replicating M. tuberculosis project, secondary assay (AID 492998); assay type: functional, VeroE6; conditions: Vero C1008
[8] = Shn3 3'UTR reporter inhibitors, dose response, cell-based, Clone20 osteoblasts, firefly luciferase, cherry-picked (AID 624132); assay type: functional;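 also: firefly luciferase luminescence from reporter carrying the Shn3 3'UTR in osteoblasts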
A-375 = assay: A375 melanoma cell viability reduction, dose response, counter-screen for MITF modulator project, cherry-pick samples, set 2 (AID 540335); assay type: functional, cell-based; conditions: Homo sapiens
[9] = control 3'UTR Renilla luciferase suppression, dose response, counter-screen for Shn3 inhibitor project, cell-based, Clone20-Shn3RL, cherry-picked (AID 624133); assay type: functional
cells [10] = assay type: functional
[11] = HepG2 cell cytotoxicity, dose response, cytotoxicity control for Shn3 inhibitor project, CellTiter-Glo, cherry-picked (AID 624134); assay type: functional, cell-based
[12] = biological target: T1, Microphthalmia-associated transcription factor (Homo sapiens, UniProt O75030); assay: TRPM1 promoter luciferase signal decrease, dose response, MITF inhibitor project, cell-based, SK-MEL-5, cherry-picked, set 3 (AID 493073); assay type: functional
T1 sequence (O75030 whole entry): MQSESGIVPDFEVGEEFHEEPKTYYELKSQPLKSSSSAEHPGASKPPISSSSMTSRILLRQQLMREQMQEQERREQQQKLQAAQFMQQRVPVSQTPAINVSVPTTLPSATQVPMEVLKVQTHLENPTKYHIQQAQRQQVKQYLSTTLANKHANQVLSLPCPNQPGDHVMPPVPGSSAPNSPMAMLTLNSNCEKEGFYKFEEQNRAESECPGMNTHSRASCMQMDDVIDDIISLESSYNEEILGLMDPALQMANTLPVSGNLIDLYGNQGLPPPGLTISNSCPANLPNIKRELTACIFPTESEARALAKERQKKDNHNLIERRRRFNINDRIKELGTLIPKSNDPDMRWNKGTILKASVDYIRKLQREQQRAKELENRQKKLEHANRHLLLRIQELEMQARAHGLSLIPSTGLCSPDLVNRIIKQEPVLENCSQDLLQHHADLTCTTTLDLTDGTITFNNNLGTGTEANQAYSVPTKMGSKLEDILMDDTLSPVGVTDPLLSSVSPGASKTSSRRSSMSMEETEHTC

BJ [13] = assay: cytotoxicity toward BJ-TERT-LT-ST fibroblasts, dose response, cell-based, RAS-independent, luminescence (AID 1935); assay type: functional; conditions: Homo sapiens;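 also: BJ fibroblasts immortalized with TERT plus LT and ST oncogenes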
[14] = THP-1 cell cytotoxicity, dose response, cytotoxicity control for non-replicating M. tuberculosis project (AID 489025); assay type: functional
BJ [15] = assay: cells; assay type: functional, cell-based; conditions: Homo sapiens
[16] = HepG2 cell cytotoxicity, dose response, cytotoxicity control for non-replicating M. tuberculosis project (AID 489018); assay type: functional; conditions: Mycobacterium tuberculosis
[17] = mammalian cell cytotoxicity, dose response, cytotoxicity control, plate reader, cherry-pick samples (AID 504397); assay type: functional, cell-based
CAAX prenyl protease 2 [18] = biological target: T2, CAAX prenyl protease 2 (Saccharomyces cerevisiae S288c, UniProt Q03530); assay type: biochemical
T2 sequence (Q03530 whole entry): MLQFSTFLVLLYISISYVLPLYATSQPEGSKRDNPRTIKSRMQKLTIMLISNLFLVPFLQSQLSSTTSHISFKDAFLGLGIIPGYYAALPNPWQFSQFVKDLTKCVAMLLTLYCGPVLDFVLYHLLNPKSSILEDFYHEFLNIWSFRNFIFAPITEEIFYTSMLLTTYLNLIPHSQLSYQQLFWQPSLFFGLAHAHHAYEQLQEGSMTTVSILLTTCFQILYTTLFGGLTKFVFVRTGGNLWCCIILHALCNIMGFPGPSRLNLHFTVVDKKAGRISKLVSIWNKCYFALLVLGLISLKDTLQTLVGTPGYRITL

CAAX prenyl protease 2 [19] = biological target: T3, CAAX prenyl protease 2 (Homo sapiens, UniProt Q9Y256); assay: human Rce1 protease inhibitors, dose response, biochemical, yeast membranes, quenched-peptide fluorescence, cherry-pick (AID 588849)
T3 sequence (Q9Y256 whole entry): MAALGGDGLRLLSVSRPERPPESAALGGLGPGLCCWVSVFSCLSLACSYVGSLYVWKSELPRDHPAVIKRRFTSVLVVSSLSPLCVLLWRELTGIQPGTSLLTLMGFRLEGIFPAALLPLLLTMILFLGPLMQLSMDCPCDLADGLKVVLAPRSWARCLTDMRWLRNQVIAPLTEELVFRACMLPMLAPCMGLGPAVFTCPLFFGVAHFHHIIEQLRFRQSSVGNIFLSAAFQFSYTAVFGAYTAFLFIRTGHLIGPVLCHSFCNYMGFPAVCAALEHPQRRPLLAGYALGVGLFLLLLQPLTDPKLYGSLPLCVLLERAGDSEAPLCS

[20] = inhibitors of SNCA 5'UTR-driven reporter translation, confirmation, H4 neuroglioma cells, luminescence (AID 1988); assay type: functional, cell-based
[21] = biological target: Eukaryotic translation initiation factor 4E (Mus musculus, UniProt P63073); assay: eIF4E–eIF4G protein interaction inhibitors, dose response, biochemical, TR-FRET (AID 855); assay type: functional;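 also: potency for disrupting eIF4E binding to eIF4GI seen as loss of FRET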
Eukaryotic translation initiation factor 4E, sequence (P63073 whole entry): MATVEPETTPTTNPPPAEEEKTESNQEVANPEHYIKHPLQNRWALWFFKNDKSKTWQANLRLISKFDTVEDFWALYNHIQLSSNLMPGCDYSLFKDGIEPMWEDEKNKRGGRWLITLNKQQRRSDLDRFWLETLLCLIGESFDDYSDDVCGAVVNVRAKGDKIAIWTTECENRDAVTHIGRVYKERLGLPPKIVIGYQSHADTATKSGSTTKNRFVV

Hexokinase-1 = Hexokinase-1 (Homo sapiens, UniProt P19367); assay: hexokinase 1 activators, dose response, selectivity assay for HKDC1 activator project, biochemical (AID 504762); assay type: functional
Hexokinase-1, sequence (P19367 whole entry): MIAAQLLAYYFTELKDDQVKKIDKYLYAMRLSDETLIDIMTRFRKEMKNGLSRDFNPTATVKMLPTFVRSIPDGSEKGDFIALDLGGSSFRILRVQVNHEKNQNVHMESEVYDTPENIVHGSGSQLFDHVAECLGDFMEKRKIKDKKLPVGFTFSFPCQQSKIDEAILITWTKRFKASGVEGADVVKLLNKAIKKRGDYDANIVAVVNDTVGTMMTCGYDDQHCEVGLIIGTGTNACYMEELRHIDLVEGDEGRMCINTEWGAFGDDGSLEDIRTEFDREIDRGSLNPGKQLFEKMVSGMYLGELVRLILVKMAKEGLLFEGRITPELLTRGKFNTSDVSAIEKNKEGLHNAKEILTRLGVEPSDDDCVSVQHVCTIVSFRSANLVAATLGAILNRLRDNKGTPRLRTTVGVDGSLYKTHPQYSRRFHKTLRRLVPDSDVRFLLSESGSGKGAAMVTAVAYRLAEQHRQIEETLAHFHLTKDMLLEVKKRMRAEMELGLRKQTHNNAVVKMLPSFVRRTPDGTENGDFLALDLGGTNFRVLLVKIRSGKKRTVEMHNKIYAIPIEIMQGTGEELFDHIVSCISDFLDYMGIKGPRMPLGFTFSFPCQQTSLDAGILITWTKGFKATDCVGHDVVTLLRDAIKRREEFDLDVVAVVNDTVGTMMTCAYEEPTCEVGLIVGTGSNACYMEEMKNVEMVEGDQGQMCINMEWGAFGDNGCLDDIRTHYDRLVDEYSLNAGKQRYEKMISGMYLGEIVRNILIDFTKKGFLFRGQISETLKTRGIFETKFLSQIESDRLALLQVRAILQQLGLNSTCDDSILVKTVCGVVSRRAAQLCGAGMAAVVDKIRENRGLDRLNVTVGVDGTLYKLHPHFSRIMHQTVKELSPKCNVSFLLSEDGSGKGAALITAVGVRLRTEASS

[22] = biological target: T4, Mannose-6-phosphate isomerase (Homo sapiens, UniProt P34949); assay: PMI enzyme inhibitors, confirmation, biochemical, fluorescence intensity (AID 1535)
T4 sequence (P34949 whole entry): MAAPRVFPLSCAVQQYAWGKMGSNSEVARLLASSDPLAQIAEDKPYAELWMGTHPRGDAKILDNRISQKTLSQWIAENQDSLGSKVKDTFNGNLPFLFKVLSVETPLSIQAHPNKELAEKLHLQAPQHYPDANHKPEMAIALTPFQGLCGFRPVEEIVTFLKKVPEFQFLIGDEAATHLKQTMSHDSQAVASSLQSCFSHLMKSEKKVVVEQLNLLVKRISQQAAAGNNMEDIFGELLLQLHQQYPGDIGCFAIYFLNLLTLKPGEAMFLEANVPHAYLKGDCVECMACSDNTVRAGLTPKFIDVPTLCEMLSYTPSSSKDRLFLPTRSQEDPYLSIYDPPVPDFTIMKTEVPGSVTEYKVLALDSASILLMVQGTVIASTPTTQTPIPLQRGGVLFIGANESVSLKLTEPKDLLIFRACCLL

Hexokinase HKDC1 = biological target: T5, Hexokinase HKDC1 (Homo sapiens, UniProt Q2TB90); assay: HKDC1 hexokinase activators, dose response, biochemical, W721R variant (AID 504730); assay type: functional
T5 sequence (Q2TB90 whole entry): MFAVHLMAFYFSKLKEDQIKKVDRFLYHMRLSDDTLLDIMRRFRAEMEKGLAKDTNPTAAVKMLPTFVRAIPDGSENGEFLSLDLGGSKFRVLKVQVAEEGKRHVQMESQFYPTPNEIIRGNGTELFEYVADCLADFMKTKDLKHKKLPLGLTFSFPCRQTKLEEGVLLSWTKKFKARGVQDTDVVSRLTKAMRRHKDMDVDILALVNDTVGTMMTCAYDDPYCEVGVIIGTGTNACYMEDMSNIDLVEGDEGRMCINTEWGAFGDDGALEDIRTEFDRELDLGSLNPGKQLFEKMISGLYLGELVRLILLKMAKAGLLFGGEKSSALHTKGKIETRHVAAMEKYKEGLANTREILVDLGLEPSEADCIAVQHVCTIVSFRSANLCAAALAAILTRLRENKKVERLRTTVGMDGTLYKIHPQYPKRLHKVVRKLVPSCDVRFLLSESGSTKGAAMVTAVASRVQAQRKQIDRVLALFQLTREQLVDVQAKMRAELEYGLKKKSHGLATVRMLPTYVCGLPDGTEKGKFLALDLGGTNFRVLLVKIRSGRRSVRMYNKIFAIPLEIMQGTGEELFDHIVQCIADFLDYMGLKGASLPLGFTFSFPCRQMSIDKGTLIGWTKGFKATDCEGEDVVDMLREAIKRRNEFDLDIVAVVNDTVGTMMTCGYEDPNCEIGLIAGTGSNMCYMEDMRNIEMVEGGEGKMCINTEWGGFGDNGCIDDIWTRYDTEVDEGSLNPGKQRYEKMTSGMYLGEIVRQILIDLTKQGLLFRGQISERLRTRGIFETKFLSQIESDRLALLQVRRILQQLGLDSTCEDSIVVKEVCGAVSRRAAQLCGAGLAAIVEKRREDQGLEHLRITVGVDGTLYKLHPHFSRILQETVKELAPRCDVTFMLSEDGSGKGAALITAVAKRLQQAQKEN

[23] = inhibitors of firefly luciferase expression or activity, dose response, H4 neuroglioma cells, luminescence (AID 1990); assay type: functional, cell-based
[24] = biological target: T6, Voltage-gated N-type calcium channel alpha-1B subunit/Amyloid beta A4 precursor protein-binding family A member 1 (Homo sapiens, UniProt Q00975+Q02410); assay type: protein assay
T6 sequence (Q00975 whole entry): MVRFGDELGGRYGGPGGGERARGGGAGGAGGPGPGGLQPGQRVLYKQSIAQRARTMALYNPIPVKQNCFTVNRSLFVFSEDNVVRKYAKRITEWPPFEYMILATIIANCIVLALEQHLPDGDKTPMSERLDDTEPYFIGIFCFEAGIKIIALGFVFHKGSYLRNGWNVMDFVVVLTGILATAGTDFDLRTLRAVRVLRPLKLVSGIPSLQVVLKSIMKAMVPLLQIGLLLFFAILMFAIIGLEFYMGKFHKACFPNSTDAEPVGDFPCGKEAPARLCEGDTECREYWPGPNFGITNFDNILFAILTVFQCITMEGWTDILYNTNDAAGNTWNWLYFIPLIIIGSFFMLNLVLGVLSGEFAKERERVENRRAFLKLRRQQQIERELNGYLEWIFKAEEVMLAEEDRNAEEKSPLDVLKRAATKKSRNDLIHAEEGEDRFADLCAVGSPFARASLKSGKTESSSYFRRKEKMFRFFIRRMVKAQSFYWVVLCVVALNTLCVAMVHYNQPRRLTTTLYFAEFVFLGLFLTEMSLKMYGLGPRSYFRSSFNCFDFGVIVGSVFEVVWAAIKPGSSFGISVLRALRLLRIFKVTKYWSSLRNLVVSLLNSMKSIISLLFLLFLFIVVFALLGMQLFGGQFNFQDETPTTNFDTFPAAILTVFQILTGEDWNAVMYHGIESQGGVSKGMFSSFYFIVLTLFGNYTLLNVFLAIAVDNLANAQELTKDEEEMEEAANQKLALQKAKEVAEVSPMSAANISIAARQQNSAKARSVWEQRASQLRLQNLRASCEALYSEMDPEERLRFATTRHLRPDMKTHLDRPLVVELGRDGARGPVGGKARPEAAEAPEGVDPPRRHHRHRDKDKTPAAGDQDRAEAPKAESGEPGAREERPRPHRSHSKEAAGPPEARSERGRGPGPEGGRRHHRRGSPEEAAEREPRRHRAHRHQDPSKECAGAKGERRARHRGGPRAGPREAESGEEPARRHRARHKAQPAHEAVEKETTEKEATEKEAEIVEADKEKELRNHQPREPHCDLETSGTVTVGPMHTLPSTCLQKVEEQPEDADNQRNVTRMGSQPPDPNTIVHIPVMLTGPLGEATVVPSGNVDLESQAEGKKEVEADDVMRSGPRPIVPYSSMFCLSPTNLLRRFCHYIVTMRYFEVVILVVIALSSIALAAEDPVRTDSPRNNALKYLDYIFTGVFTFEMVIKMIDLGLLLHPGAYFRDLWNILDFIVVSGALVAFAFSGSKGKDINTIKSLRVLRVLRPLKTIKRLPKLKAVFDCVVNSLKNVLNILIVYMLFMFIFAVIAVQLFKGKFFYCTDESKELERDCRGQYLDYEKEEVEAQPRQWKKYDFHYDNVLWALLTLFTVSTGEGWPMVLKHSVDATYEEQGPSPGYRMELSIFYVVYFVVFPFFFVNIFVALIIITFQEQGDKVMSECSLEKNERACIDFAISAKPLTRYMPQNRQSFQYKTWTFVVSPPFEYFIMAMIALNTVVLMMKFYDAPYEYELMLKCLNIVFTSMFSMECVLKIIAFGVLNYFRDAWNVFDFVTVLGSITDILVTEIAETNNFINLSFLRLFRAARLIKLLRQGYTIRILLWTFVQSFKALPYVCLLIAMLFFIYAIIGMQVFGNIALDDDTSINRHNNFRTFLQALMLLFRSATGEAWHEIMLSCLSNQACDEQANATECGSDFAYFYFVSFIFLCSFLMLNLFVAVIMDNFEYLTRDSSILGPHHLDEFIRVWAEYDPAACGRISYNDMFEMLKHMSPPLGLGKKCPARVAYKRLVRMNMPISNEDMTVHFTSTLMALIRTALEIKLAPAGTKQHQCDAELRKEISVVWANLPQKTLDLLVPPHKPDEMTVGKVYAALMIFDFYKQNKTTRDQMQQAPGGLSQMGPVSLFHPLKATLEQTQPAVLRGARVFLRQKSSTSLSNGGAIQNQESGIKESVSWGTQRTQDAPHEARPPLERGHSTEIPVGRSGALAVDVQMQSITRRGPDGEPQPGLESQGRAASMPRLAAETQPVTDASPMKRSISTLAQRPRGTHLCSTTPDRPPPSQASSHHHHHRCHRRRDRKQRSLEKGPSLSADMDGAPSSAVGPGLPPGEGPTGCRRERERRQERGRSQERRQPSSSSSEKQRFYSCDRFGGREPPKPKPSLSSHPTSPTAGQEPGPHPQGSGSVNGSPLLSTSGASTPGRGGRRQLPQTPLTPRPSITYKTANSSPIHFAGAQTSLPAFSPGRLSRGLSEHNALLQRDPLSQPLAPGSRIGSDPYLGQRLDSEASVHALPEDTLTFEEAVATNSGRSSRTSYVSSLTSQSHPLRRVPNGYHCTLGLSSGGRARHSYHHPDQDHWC
T6 sequence (Q02410 whole entry): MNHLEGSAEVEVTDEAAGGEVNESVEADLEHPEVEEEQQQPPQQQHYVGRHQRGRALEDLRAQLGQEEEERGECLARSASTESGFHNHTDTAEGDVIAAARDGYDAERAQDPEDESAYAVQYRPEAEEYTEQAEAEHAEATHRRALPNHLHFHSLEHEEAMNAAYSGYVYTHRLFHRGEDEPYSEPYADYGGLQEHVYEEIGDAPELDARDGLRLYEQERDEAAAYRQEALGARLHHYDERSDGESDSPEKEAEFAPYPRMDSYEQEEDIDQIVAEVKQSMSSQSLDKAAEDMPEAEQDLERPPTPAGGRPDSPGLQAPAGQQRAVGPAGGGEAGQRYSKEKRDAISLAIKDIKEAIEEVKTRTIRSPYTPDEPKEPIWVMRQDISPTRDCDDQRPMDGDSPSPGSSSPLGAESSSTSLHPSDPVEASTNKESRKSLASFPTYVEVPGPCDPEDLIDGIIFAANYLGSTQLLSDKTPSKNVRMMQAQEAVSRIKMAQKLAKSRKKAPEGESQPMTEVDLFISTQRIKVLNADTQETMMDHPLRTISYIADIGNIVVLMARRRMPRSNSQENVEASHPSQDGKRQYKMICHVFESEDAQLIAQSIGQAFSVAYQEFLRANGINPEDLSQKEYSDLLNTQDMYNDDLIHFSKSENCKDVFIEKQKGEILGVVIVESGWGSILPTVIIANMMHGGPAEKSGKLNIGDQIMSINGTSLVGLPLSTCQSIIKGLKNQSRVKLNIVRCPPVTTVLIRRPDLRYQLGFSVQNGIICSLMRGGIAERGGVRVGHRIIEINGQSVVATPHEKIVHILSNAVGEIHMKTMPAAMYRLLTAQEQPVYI

[25] = biological target: T6, Voltage-gated N-type calcium channel alpha-1B subunit/Amyloid beta A4 precursor protein-binding family A member 1; assay type: protein assay; remark: listed apart in the source
[26] = Luminescence Cell-Based Dose Response HTS to Identify Inhibitors of 5'UTR Stem-Loop Driven Prion Protein mRNA Translation in H4 Neuroglioblastoma Cells. [Related pubchem assays: 1827 (Project Summary), 1813 (Primary HTS)]; assay type: functional
[27] = biological target: DNA dC->dU-editing enzyme APOBEC-3G (Homo sapiens, UniProt Q9HC16); assay: Dose Response confirmation of small molecule APOBEC3G DNA Deaminase Inhibitors via a fluorescence-based single-stranded DNA deaminase assay. [Related pubchem assays (depositor defined):AID493012, AID493028]; assay type: functional
Phosphomannomutase 2 = biological target: T7, Phosphomannomutase 2 (Homo sapiens, UniProt O15305); assay: Counter screen SAR assay for PMM2 inhibitors via a fluorescence intensity assay. [Related pubchem assays (depositor defined):AID1545, AID1574]
T7 sequence (O15305 whole entry): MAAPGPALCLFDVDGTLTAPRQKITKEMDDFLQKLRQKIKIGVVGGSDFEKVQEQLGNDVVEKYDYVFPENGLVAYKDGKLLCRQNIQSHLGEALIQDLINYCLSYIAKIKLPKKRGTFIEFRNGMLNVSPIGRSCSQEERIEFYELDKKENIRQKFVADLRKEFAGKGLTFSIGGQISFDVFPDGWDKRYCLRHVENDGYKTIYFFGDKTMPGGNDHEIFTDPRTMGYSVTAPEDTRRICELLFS

[28] = biological target: T8, Ubiquitin-conjugating enzyme E2 N (Homo sapiens, UniProt P61088); assay type: functional
T8 sequence (P61088 whole entry): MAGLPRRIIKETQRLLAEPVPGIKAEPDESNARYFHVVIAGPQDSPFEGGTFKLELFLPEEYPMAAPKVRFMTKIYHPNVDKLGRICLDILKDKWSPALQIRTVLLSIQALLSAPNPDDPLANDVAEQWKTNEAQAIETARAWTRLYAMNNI

[29] = biological target: T8, Ubiquitin-conjugating enzyme E2 N; assay type: functional; remark: listed apart in the source
Bcl-2-related protein A1 = biological target: T9, Bcl-2-related protein A1 (Mus musculus, UniProt Q07440); assay type: functional;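 also: confirmatory dose–response counterscreen on Bfl-1, used to check hits from a UBC13 polyubiquitin inhibitor campaign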
T9 sequence (Q07440 whole entry): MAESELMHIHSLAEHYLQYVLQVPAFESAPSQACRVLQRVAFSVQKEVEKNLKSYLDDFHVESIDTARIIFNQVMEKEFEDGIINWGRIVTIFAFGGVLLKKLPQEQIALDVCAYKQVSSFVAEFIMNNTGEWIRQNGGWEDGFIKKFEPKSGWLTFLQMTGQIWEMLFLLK

CN(C)c1nc(-c2ccccn2)nnc1-c1ccccc1
inconclusive: EC50 (BJ [2]) 16.5 µM | EC50 (BJ [3]) 121 µM | EC50 (BJ [13]) > 150 µM | EC50 (BJ [15]) 13.3 µM
> 350 µM (not active): EC50 (cells [1])
> 50 µM (not active): EC50 (HT-1080)
active: EC50 (cells [4]) 7.46 µM | IC50 (Nonstructural protein 1) 1.09 µM | EC50 [5] 1.23 µM | EC50 [6] 17.5 µM | CC50 [7] 5.38 µM | AC50 [8] 3.3 µM | AC50 (A-375) 39.3 µM | AC50 [9] 8.3 µM | IC50 (cells [10]) 6.05 µM | AC50 [11] 57.6 µM | AC50 [12] 6.17 µM | CC50 [14] 8.1 µM | CC50 [16] 19.8 µM

Cc1cccc(OCCN2C(=O)C(=O)c3cc(C)ccc32)c1
active: AC50 [17] 73.6 µM | AC50 (CAAX prenyl protease 2 [18]) 1.11 µM | AC50 (CAAX prenyl protease 2 [19]) 18.1 µM

Cc1ccc(/N=c2\ssnc2Cl)cc1
inactive: IC50 [21] 35.4 µM | EC50 (Hexokinase-1) 53.2 µM | EC50 (Hexokinase HKDC1) 59 µM | IC50 (Phosphomannomutase 2) > 100 µM
> 120 µM (not active): EC50 [20] | EC50 [23] | EC50 [26]
active: IC50 [22] 18.6 µM | IC50 [24] 9.27 µM | IC50 [25] 2.85 µM | IC50 [27] 10.2 µM

CC(C)C[C@H](N)c1cn([C@@H](Cc2cc3ccccc3[nH]2)C(=O)N2CCNCC2)nn1
active: IC50 [28] 14 µM | IC50 [29] 15.8 µM
inactive: IC50 (Bcl-2-related protein A1) > 20 µM
